This is an account of results in patent US20260166121A1, “COMPOSITIONS AND METHODS FOR THE TREATMENT OF HEMORRHAGIC SHOCK” (Children's Hospital Medical Center, priority 2022, published 2026).

The assay relates to STAT3. Nature of the assay: Western blot of STAT3, pSTAT3(Ser727), pSTAT3(Tyr705) in cytosol and nuclear extracts of lung and heart. The assay is classed as in vivo, mice. An excerpt:
Murine model of hemorrhagic shock. The experiments conformed to the Guide for the Care and Use of Laboratory Animals published by the US National Institutes of Health (Eighth edition, 2011) and had the approval of the Institutional Animal Care and Use Committee. Homozygous AMPKα1 wild-type (WT) and AMPKα1 knockout (KO) mice were established on a C57/BL6 genetic background by the crossbreeding (>10 generations) of a breeding pair provided by Dr. Benoit Viollet of the University of Paris Descartes (Paris, France). For these experiments, female AMPKα1 WT and KO mice were generated by a breeding scheme utilizing heterozygous mutant mice. Female mice were used at random stages of the estrous cycle at the age of 3 to 5 months and assigned to the different experimental groups after routine genotyping by quantitative polymerase chain reaction. All mice were allowed free access to water and a maintenance diet in a 12-h light/dark cycle, with room temperature at 21±2° C. Mice were anesthetized with pentobarbital (80 mg/kg) intraperitoneally and prepared for hemorrhagic shock, as previously described. Briefly, either the left or right femoral artery was cannulated using PE-10 tubing, and connected to a blood pressure transducer (PowerLab, AD Instruments, Colorado Springs, CO) for measurement of mean arterial blood pressure (MABP) and heart rate (HR). Blood was removed from the femoral artery over a 10-minute period until MABP reached 30±5 mmHg. The mice were kept in this MABP range for 90 min by additional blood removal or small volume transfusion. At the end of the shock period, mice were resuscitated by infusing their shed blood and twice that amount in Lactated Ringer's solution over a 10-min period. AMPKα1 WT and KO mice were also randomly assigned to two treatment groups: a vehicle group (distilled water, 500 μL) and a humanin-G (100 μg/kg) group. Drug treatment was given intra-arterially as single bolus right before resuscitation, and at 1 and 2 hours thereafter. Dose of humanin was chosen according to reported pharmacokinetics and pharmacodynamics of the drug in the mice. Mice were monitored for 3 hours after resuscitation for cardiovascular parameters. […] Mice were sacrificed at 3 hours after resuscitation and blood, heart and lungs were collected for biochemical assays.
Cytosol and nuclear extracts. Heart and lung tissues were homogenized using a Polytron homogenizer (Brinkman Instruments, West Orange, NY) in a buffer containing 0.32 M sucrose, 10 mM TrisHCl (pH 7.4), 1 mM EGTA, 2 mM EDTA, 5 mM NaN3, 10 mM β-mercaptoethanol, […], 0.15 mM pepstatin A, 0.2 mM phenylmethanesulfonyl fluoride, 50 mM NaF, 1 mM sodium orthovanadate, and 0.4 nM microcystin. Samples were centrifuged at 1,000 g for 10 min at […] and the supernatants collected as cytosol extracts. The pellets were then solubilized in Triton buffer (1% Triton X-100, 250 mM NaCl, 50 mM Tris HCl at pH 7.5, 3 mM EGTA, 3 mM EDTA, 0.1 mM phenylmethanesulfonyl fluoride, 0. 1 mM sodium orthovanadate, 10% glycerol, 2 mM p-nitrophenyl phosphate, 0.5% NP-40, and […]). The lysates were centrifuged at 15,000 g for 30 min at […] and the supernatant collected as nuclear extracts. The Bradford protein assay was used for quantitative determination of total proteins.
Western blot analysis. Cytosol and nuclear content of STAT3 and its two phosphorylated active forms pSTAT3(Tyr705) and pSTAT3(Ser727), and mitochondrial content of pSTAT3(Ser727) and the Complex I subunit GRIM-19 (gene associated with retinoid-IFN-induced mortality) were determined by immunoblotting analyses. Extracts were heated at 70° C. in equal volumes of ×4 Protein Sample Loading Buffer. Twenty μg of protein were loaded per lane on a 10% Bis-Tris gel. Proteins were separated electrophoretically and transferred to nitrocellulose membranes. […]
In general terms: Immunoblotting shows a protein as a band on a membrane.

[1] abbreviates: heart, WT mice, 100 μg/kg intra-arterially.
The mark [2] stands for this setting: lung, mice of both genotypes, 100 μg/kg intra-arterially.

Consider “[Gly14]-Humanin (MAPRGFSCLLLLTGEIDLPVKRRA) [humanin-G, synthetic humanin analogue, serine at position 14 replaced by glycine]”, for which, under setting [1], the “cytosolic or nuclear expression of pSTAT3(Ser727) in heart” value was “did not affect” and the “cytosolic or nuclear expression of pSTAT3(Tyr705) in heart” value is listed as “did not affect”. Moreover, the “total levels of STAT3 in heart” value (heart, across experimental groups, WT or KO mice) is on record as “no difference”. For the same substance, for the setting “lung, across experimental groups, WT or KO mice”, the “total levels of STAT3 in lung” value is given as “no difference”. For the same substance, under setting [2], the “pSTAT3(Ser727) in lung cytosol and nucleus” value is listed as “upregulated only in the nucleus”; the “pSTAT3(Tyr705) in lung cytosol and nucleus” value is listed as “further upregulated”.
